Where a name gives a salt, the structure may show the parent alone. Read-outs that look alike come from different tables or passages of the source.
Experiments:
TNF-α [1] = assay: Rat assay: LPS-challenged rats, serum TNF-α by ELISA; type: in vivo; settings: for inhibition in vivo at 5 mg/kg: read-out: Rat LPS Model % Inhibition @ dose @ predose time
Procedure: The efficacy of the novel compounds in blocking the production of TNF also was evaluated using a model based on rats challenged with LPS. Male Harlen Lewis rats [Sprague Dawley Co.] were used in this model. Each rat weighed approximately 300 g and was fasted overnight prior to testing. Compounds administration was typically by oral gavage (although intraperitoneal, subcutaneous and intravenous administration were also used in a few instances) 1 to 24 hours prior to the LPS challenge. Rats were administered 30 μg/kg LPS [salmonella typhosa, Sigma Co.] intravenously via the tail vein. Blood was collected via heart puncture 1 hour after the LPS challenge. Serum samples were stored at −20° C. until quantitative analysis of TNF-α by Enzyme Linked-Immuno-Sorbent Assay (“ELISA”) [Biosource]. Additional details of the assay are set forth in Perretti, M., et al., Br. J. Pharmacol. (1993), 110, 868-874, which is incorporated by reference in this application.
In vivo assessment of the ability of the compounds to inhibit LPS-stimulated TNF release in the rat is shown in the column identified as:
wherein in the dose is milligram per kilogram (mpk) administered by oral gavage and the predose time indicates the number of hours before LPS challenge when the compound is administered.

TNF-α [2] = assay: LPS stimulation of TNF production by U937 cells; type: cell-based, human; settings: Homo sapiens; for inhibition at 1 µM: U-937, @ 1.0 uM, read-out: U937 Cell % inhib @ conc.; for IC50: U-937, TNF production, LPS-stimulated human U937 cells, read-out: U937 Cell IC50
Procedure, shortened: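 PMA-differentiated human U937 cells (20 ng/ml PMA, 24 h, then 24-48 h rest) at 2 million cells/ml, 0.1% DMSO final, stimulated with E. coli LPS (100 ng/ml final) for 4 h at 37° C. TNF-α in medium measured by ELISA; IC50 in μM.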

[3] = target: T1, human GST-p38 kinase alpha (Homo sapiens, UniProt Q16539); assay: p38 kinase in vitro assay, second format, phosphorylation of EGFRP with 33P-ATP; type: biochemical
T1 construct: The coding region of the human p38a cDNA was obtained by PCR-amplification from RNA isolated from the human monocyte cell line THP.1; made in house; host or cells: E. coli DH10B
T1 sequence (Q16539 whole entry): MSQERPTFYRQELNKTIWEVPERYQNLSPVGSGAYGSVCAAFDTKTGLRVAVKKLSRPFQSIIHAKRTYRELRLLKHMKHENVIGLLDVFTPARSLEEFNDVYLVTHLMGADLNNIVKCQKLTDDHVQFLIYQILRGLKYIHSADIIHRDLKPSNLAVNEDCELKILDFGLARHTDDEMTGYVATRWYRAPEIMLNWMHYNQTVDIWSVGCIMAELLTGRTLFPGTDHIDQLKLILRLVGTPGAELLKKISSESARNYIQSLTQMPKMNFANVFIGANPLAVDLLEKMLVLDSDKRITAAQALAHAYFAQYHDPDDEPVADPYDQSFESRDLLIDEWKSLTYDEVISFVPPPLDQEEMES
Procedure: A second assay format was also employed that is based on p38 kinase alpha induced phosphorylation of EGFRP (epidermal growth factor receptor peptide, a 21 mer) in the presence of ^33P-ATP. Compounds were tested in 10 fold serial dilutions over the range of 100 μM to 0.001 μM in 10% DMSO. Each concentration of inhibitor was tested in triplicate. Compounds were evaluated in 50 μl reaction volumes in the presence of 25 mM Hepes pH 7.5, 10 mM magnesium acetate, 4% glycerol, 0.4% bovine serum albumin, 0.4 mM DTT, 50 μM unlabeled ATP, 25 μg EGFRP (200 μM), and 0.05 uCi gamma ^33P-ATP. Reactions were initiated by addition of 0.09 μg of activated, purified human GST-p38 kinase alpha. Activation was carried out using GST-MKK6 (5:1, p38: MKK6) for one hour at 30° C. in the presence of 50 μM ATP. Following incubation for 60 minutes at room temperature, the reaction was stopped by addition of 150 μl of AG 1×8 resin in 900 mM sodium formate buffer, pH 3.0 (1 volume resin to 2 volumes buffer). The mixture was mixed three times with pipetting and the resin was allowed to settle. A total of 50 μl of clarified solution head volume was transferred from the reaction wells to Microlite-2 plates. 150 μl of Microscint 40 was then added to each well of the Microlite plate, and the plate was sealed, mixed, and counted.

human p38 kinase alpha = target: T2, human p38 kinase alpha (Homo sapiens, UniProt Q16539); assay: p38 kinase in vitro assay, phosphorylation of biotinylated PHAS-I with gamma 32P-ATP; type: biochemical; settings: read-out: P38 alpha kinase IC50
T2 construct: The coding region of the human p38a cDNA was obtained by PCR-amplification from RNA isolated from the human monocyte cell line THP.1; GST (N); made in house; host or cells: E. coli DH10B
T2 sequence (Q16539 whole entry): as above
Procedure, shortened: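 Radiometric filter-capture read-out: streptavidin plates trap biotin-PHAS-I labelled by activated (MKK6) human p38α from γ-32P-ATP. Buffer 25 mM HEPES pH 7.5, 10 mM magnesium acetate, 50 μM cold ATP; reactions 1 h or overnight at 30 °C; inhibitors 10-fold dilutions 100 to 0.001 μM, triplicates, 1% DMSO.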

[4] = 3 mpk oral gavage, -4h before LPS
[5] = Rattus norvegicus, po, -4 h, 3 mpk oral gavage, -4h before LPS, read-out: Rat LPS Model % inhib @ dose @ predose time
[6] = 3 mpk oral gavage, 4 h before LPS challenge
[7] = Rattus norvegicus, po, 5 mpk oral gavage, 4 h before LPS challenge

COc1ccc(S(=O)(=O)NC(C)c2[nH]nc(-c3ccc(F)cc3)c2-c2ccncc2)cc1 (stereo not shown) [Example B-0574]
Rat LPS Model % inhib @ dose @ predose time (TNF-α [1]; [4]): 37% @ 3 mpk @ -4h

C[C@@H](NS(=O)(=O)c1ccc(F)c(Cl)c1)c1[nH]nc(-c2ccc(F)cc2)c1-c1ccncc1 [Example B-0466]
inhibition in vivo at 3 mg/kg (TNF-α [1]; [5]): 0% | inhibition at 1 µM (TNF-α [2]): 98%

O=C(c1n[nH]c(-c2ccc(F)cc2)c1-c1ccncc1)N1CCNCC1 [A-314, Step 1, 1-[[5-(4-fluorophenyl)-4-(4-pyridinyl)-1H-pyrazol-3-yl]carbonyl]piperazine, monhydrate]
IC50 ([3]; Table 8, 10% DMSO, read-out: p38α Kinase Assay IC50): 0.37 µM

C[C@@H](NS(=O)(=O)c1ccc(C#N)cc1)c1[nH]nc(-c2ccc(F)cc2)c1-c1ccncc1 [Example B-0479]
inhibition in vivo at 3 mg/kg (TNF-α [1]; [5]): 15% | inhibition at 1 µM (TNF-α [2]): 90% | IC50 (human p38 kinase alpha): 0.031 µM

O=C(O)CCC(=O)N1CCN(c2n[nH]c(-c3ccc(Cl)cc3)c2-c2ccncc2)CC1 [A-321 (monosodium salt dihydrate), 4-[5-(4-chlorophenyl)-4-(4-pyridinyl)-1H-pyrazol-3-yl]-γ-oxo-1-piperazinebutanoic acid, monosodium salt dihydrate]
inhibition in vivo at 3 mg/kg (TNF-α [1]; Rattus norvegicus, po, read-out: Rat LPS Assay % Inhibition): 14%

O=C(C1CC1)N1CCC(c2[nH]nc(-c3ccc(F)cc3)c2-c2ccncc2)CC1 [Example B-1364]
Rat LPS Model % inhib @ dose @ predose time (TNF-α [1]; [6]): 17% @ 3 mpk @ -4h

CC(NS(=O)(=O)c1ccc(Cl)s1)c1[nH]nc(-c2ccc(F)cc2)c1-c1ccncc1 (stereo not shown) [Example B-0650]
Rat LPS Model % inhib @ dose @ predose time (TNF-α [1]; [4]): 8% @ 3 mpk @ -4h

Cc1ccc(S(=O)(=O)NC(C)c2[nH]nc(-c3ccc(F)cc3)c2-c2ccncc2)cc1 (stereo not shown) [Example B-0576]
Rat LPS Model % inhib @ dose @ predose time (TNF-α [1]; [4]): 65% @ 3 mpk @ -4h

N[C@H]1CC[C@@H](c2[nH]nc(-c3cccc(Cl)c3)c2-c2ccncc2)CC1 [Example C-105, 5-cis-(4-AMINOCYCLOHEXYL)-4-(4-PYRIDYL)-3-(3-CHLOROPHENYL)PYRAZOLE]
inhibition in vivo at 5 mg/kg (TNF-α [1]; [7]): 46% | IC50 (human p38 kinase alpha): 0.033 µM

CC(NS(=O)(=O)c1cccc(Cl)c1)c1[nH]nc(-c2ccc(F)cc2)c1-c1ccncc1 (stereo not shown) [Example B-0639]
Rat LPS Model % inhib @ dose @ predose time (TNF-α [1]; [4]): 50% @ 3 mpk @ -4h

Cc1cccc(-c2nn(C)cc2-c2ccnc(C)c2)c1 [Example A-235, 2-methyl-4-[1-methyl-3 (or 5)-(3-methylphenyl)-1H-pyrazol-4-yl]pyridine]
IC50 ([3]; p38α in vitro, EGFRP assay procedure, read-out: p38^2 IC50): 0.104 µM

Sc1[nH]nc(-c2ccc(Cl)cc2)c1-c1ccncc1 [Example A-455]
IC50 ([3]; Table 10, 10% DMSO, @ 1.0 hour, read-out: p38α Kinase Assay IC50): 12.9 µM

C[C@@H](NS(=O)(=O)N(C)C)c1[nH]nc(-c2ccc(F)cc2)c1-c1ccncc1 [Example B-0487]
inhibition in vivo at 3 mg/kg (TNF-α [1]; [5]): 54%

C[C@@H](NS(=O)(=O)Cc1ccccc1)c1[nH]nc(-c2ccc(F)cc2)c1-c1ccncc1 [Example B-0389]
inhibition in vivo at 3 mg/kg (TNF-α [1]; [5]): 62% | IC50 (TNF-α [2]): 0.05 µM | IC50 (human p38 kinase alpha): 0.01 µM

CN(C)CC(=O)N1CCC(c2[nH]nc(-c3ccc(Cl)cc3)c2-c2ccncc2)CC1 [Example C-122]
inhibition in vivo at 5 mg/kg (TNF-α [1]; [7]): 55% | IC50 (human p38 kinase alpha): 0.025 µM

CC(NS(=O)(=O)c1ccc(F)c(Cl)c1)c1[nH]nc(-c2ccc(F)cc2)c1-c1ccncc1 (stereo not shown) [Example B-0643]
Rat LPS Model % inhib @ dose @ predose time (TNF-α [1]; [4]): 0% @ 3 mpk @ -4h

CN1CCC(c2[nH]nc(-c3ccc(Cl)cc3)c2-c2ccncn2)CC1 [Example C-137]
inhibition in vivo at 5 mg/kg (TNF-α [1]; [7]): 58% | IC50 (human p38 kinase alpha): 0.051 µM

O=C(c1ccc(F)cc1)N1CCC(c2[nH]nc(-c3ccc(F)cc3)c2-c2ccncc2)CC1 [Example B-1360]
Rat LPS Model % inhib @ dose @ predose time (TNF-α [1]; [6]): 54% @ 3 mpk @ -4h

CC(NC(=O)C(C)(C)C)c1[nH]nc(-c2ccc(F)cc2)c1-c1ccncc1 (stereo not shown) [Example B-0601]
Rat LPS Model % inhib @ dose @ predose time (TNF-α [1]; [4]): 43% @ 3 mpk %-4h

5-[2-(1,1-DIMETHYL)AMINOETHYL]-4-(4-PYRIDYL)-3-(4-FLUOROPHENYL)PYRAZOLE [Example C-114]
Rat LPS Model % Inhibition @ dose @ predose time (TNF-α [1]; 5 mpk oral gavage, 4 h before LPS challenge): 39% @ 5 mpk @ −4h

CCOC(=O)N[C@H](C)c1[nH]nc(-c2ccc(F)cc2)c1-c1ccncc1 [Example B-0426]
inhibition in vivo at 3 mg/kg (TNF-α [1]; [5]): 41% | IC50 (TNF-α [2]): 0.74 µM | IC50 (human p38 kinase alpha): 0.055 µM

C[C@@H](NS(=O)(=O)c1cccc(Br)c1)c1[nH]nc(-c2ccc(F)cc2)c1-c1ccncc1 [Example B-0455]
inhibition in vivo at 3 mg/kg (TNF-α [1]; [5]): 36% | inhibition at 1 µM (TNF-α [2]): 95%

C[C@@H](NS(=O)(=O)c1ccc(-c2ccccc2)cc1)c1[nH]nc(-c2ccc(F)cc2)c1-c1ccncc1 [Example B-0481]
inhibition in vivo at 3 mg/kg (TNF-α [1]; [5]): 56% | inhibition at 1 µM (TNF-α [2]): 95% | IC50 (human p38 kinase alpha): 0.014 µM

CC(NS(=O)(=O)c1ccc(C#N)cc1)c1[nH]nc(-c2ccc(F)cc2)c1-c1ccncc1 (stereo not shown) [Example B-0656]
Rat LPS Model % inhib @ dose @ predose time (TNF-α [1]; [4]): 28% @ 3 mpk @ -4h

O=C(CO)N1CCC(c2[nH]nc(-c3ccc(Cl)cc3)c2-c2ccncn2)CC1 [Example D-1, N-(2-Hydroxyacetyl)-5-(4-piperidyl)-4-(4-pyrimidyl)-3-(4-chlorophenyl)pyrazole]
inhibition in vivo at 1 mg/kg (TNF-α [1]; Rattus norvegicus, po, 1.0 mg/kg oral gavage, 4 hours before LPS challenge, read-out: ratLPS/% Inh @1.0 (mg/kg)): 83%

CC(NS(=O)(=O)c1ccc(F)cc1)c1[nH]nc(-c2ccc(F)cc2)c1-c1ccncc1 (stereo not shown) [Example B-0562]
Rat LPS Model % inhib @ dose @ predose time (TNF-α [1]; [4]): 5% @ 3 mpk @ -4h

Fc1ccc(-c2n[nH]cc2-c2ccnc(NCCN3CCC(N4CCCCC4)CC3)c2)cc1 [Example A-350, N-(2-[1,4′-bipiperidin]-1′-ylethyl)-4-[3-(4-fluorophenyl)-1H-pyrazol-4-yl]-2-pyridinamine]
inhibition in vivo at 20 mg/kg (TNF-α [1]; Rattus norvegicus, po, Table 9, dose 20 mg/kg): 65%

CC(NS(=O)(=O)Cc1ccccc1)c1[nH]nc(-c2ccc(F)cc2)c1-c1ccncc1 (stereo not shown) [Example B-0566]
Rat LPS Model % inhib @ dose @ predose time (TNF-α [1]; [4]): 0% @ 3 mpk @ -4h

C[C@@H](NC(=O)c1c(F)ccc(F)c1F)c1[nH]nc(-c2ccc(F)cc2)c1-c1ccncc1 [Example B-0503]
inhibition at 1 µM (TNF-α [2]): 73% | IC50 (human p38 kinase alpha): 0.16 µM

O=S(=O)(NCc1[nH]nc(-c2ccc(F)cc2)c1-c1ccncc1)c1ccc(F)c(Cl)c1 [Example B-0242]
inhibition at 1 µM (TNF-α [2]): 78% | IC50 (human p38 kinase alpha): < 0.1 µM

C[C@@H](NC(=O)c1ccc(C(F)(F)F)cc1)c1[nH]nc(-c2ccc(F)cc2)c1-c1ccncc1 [Example B-0527]
inhibition at 1 µM (TNF-α [2]): 63% | IC50 (human p38 kinase alpha): 1.09 µM

COc1ccccc1C(=O)N[C@H](C)c1[nH]nc(-c2ccc(F)cc2)c1-c1ccncc1 [Example B-0367]
inhibition at 1 µM (TNF-α [2]): 23% | IC50 (human p38 kinase alpha): 1 µM

Reference: US6525059B1, “Substituted pyrazoles as p38 kinase inhibitors” (G. D. Searle & Company, priority 1998, dated 2003)
